Reference: patent publication US10865191B2, “Heterocyclic compounds useful as modulators of TNF alpha” (BRISTOL-MYERS SQUIBB COMPANY, priority 2015, dated 2020)

Each compound was assayed against TNFα (Homo sapiens, UniProt P01375) (assay: TNF induced HEK-Blue assay (NF-kB-driven secreted alkaline phosphatase reporter)). Conditions: TNFα 0.5 ng/mL, HEK-Blue-CD40L cells, 18 h; read-out: TNF induced HEK-Blue assay IC50 value.
Chain of TNFα (P01375 77-233 limits assumed): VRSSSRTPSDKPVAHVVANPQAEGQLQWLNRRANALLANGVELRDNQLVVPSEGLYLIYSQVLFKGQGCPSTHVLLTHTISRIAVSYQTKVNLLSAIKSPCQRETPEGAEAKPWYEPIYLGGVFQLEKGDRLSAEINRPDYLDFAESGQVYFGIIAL
Assay type: cell-based
Protocol: TNF or CD40L-Induced HEK-Blue Assay
Test compounds serially diluted in DMSO were plated in an assay plate (LABCYTE, Cat. # LP-0200) at final concentrations ranging from 0.004 μM to 25 μM. TNFα (final concentration 0.5 ng/mL) or CD40L (final concentration 30 ng/mL) in assay buffer [DMEM, 4.5 g/l glucose (Gibco, Cat. 21063-029), 10% FBS (Sigma, F4135), 1% Penicillin-Streptomycin (Gibco, Cat. 15140-122), 1% Anti-Anti (Gibco, Cat. 15240-112) and 2 mM L-glutamine (Gibco, Cat. 25030-081)] was then added to the assay plate. After a 30 minute pre-incubation at 37° C. and 5% CO2, HEK-Blue™-CD40L cells (INVIVOGEN, Cat. Code hkb-cd40) containing a NF-kB-driven secreted alkaline phosphatase reporter gene were seeded into the assay plate at a density of 20,000 cells per well. This plate was then incubated for 18 h at 37° C. and 5% CO2. Secreted alkaline phosphatase expression was measured using QUANTI-Blue™ (INVIVOGEN, Cat. Code rep-qb1) according to manufacturer's specifications and the assay plate was read on a PerkinElmer Envision at 620 nm.
Inhibition data for the test compound over a range of concentrations was plotted as percentage inhibition of the test compound (100%=maximum inhibition). IC50 values were determined after correcting for background [(sample read-mean of low control)/(mean of high control-mean of low control)] where by the low control is DMSO without stimulation and high control is DMSO with stimulation. The IC50 is defined as the concentration of test compound which produces 50% inhibition and was quantified using the 4 parameter logistic equation to fit the data.
`CC(Nc1c(Cl)cnc2ccc(-c3cnc(C(C)(C)O)nc3)cc12)[C@H]1CCCN(C(=O)OC(C)(C)C)C1` (mixture of isomers) [Example 60, (S)-tert-butyl 3-(1-((3-chloro-6-(2-(2-hydroxypropan-2-yl)pyrimidin-5-yl)quinolin-4-yl)amino)ethyl)piperidine-1-carboxylate] was tested, and the IC50 was 1000 to 10000 nM.
Compound `CC(Nc1c(Cl)cnc2ccc(-c3cnc(C(C)(C)O)nc3)cc12)[C@@H]1CCCN(C(=O)OC(C)(C)C)C1` (mixture of isomers) [Example 61, tert-butyl (R)-3-((R)-1-((3-chloro-6-(2-(2-hydroxypropan-2-yl)pyrimidin-5-yl)quinolin-4-yl)amino)ethyl)piperidine-1-carboxylate] has an IC50 of 1000 to 10000 nM.
`O=C(O)CC1CN(c2ncc(-c3ccc4ncc(Cl)c(N[C@@H](c5ccccc5F)C(F)F)c4c3)cn2)CCN1` (mixture of isomers) [Example 77, 2-(4-(5-(3-chloro-4-(((S)-2,2-difluoro-1-(2-fluorophenyl)ethyl)amino)quinolin-6-yl)pyrimidin-2-yl)piperazin-2-yl) acetic acid] was tested, and the IC50 was < 1000 nM.
`C[C@@H](Nc1c(Cl)cnc2ccc(-c3cnc(N4CCN(C5CCNC5=O)CC4)nc3)cc12)c1ccccc1F` (mixture of isomers) [Example 112, 3-(4-(5-(3-chloro-4-(((R)-1-(2-fluorophenyl)ethyl)amino)quinolin-6-yl)pyrimidin-2-yl)piperazin-1-yl)pyrrolidin-2-one] was tested, and the IC50 was < 1000 nM.
`C[C@@H](Nc1c(Cl)cnc2ccc(-c3ccc(C(N)CC(=O)O)cc3)cc12)c1ccccc1F` (mixture of isomers) [Example 115, 3-amino-3-(4-(3-chloro-4-(((R)-1-(2-fluorophenyl)ethyl)amino)quinolin-6-yl)phenyl)propanoic acid] was tested, and the IC50 was 1000 to 10000 nM.
In the case of `C[C@@H](Nc1c(Cl)cnc2ccc(-c3ccc(CC(N)C(=O)O)cc3)cc12)c1ccccc1F` (mixture of isomers) [Example 116, 2-amino-3-(4-(3-chloro-4-(((R)-1-(2-fluorophenyl)ethyl)amino)quinolin-6-yl)phenyl)propanoic acid], the IC50 is reported as 1000 to 10000 nM.
For `C[C@@H](Nc1c(Cl)cnc2ccc(-c3ccc(C4(N)CC(O)C4)cc3)cc12)c1ccccc1F` (mixture of isomers) [Example 119, (R)-3-amino-3-(4-(3-chloro-4-((1-(2-fluorophenyl)ethyl)amino)quinolin-6-yl)phenyl)cyclobutan-1-ol], the IC50 was < 1000 nM.
Work on `CC(C)(O)c1ncc(-c2cc3c(N[C@H]4C[C@@H]4c4ccccc4)c(Cl)cnc3cc2F)cn1` (mixture of isomers) [Example 271, 2-(5-(3-chloro-7-fluoro-4-(((1S,2R)-2-phenylcyclopropyl)amino)quinolin-6-yl)pyrimidin-2-yl)propan-2-ol] yielded an IC50 of 1000 to 10000 nM.
For `COC(=O)C1CCN(c2ncc(-c3cc4c(N[C@H](C)c5ccccc5F)c(Cl)cnc4cc3F)cn2)C1` (mixture of isomers) [Example 281, methyl 1-(5-(3-chloro-7-fluoro-4-(((R)-1-(2-fluorophenyl)ethyl)amino)quinolin-6-yl)pyrimidin-2-yl)pyrrolidine-3-carboxylate], the IC50 was < 1000 nM.
For `C[C@@H](Nc1c(Cl)cnc2cc(F)c(-c3cnc(N4CCC(C(=O)O)C4)nc3)cc12)c1ccccc1F` (mixture of isomers) [Example 282, 1-(5-(3-chloro-7-fluoro-4-(((R)-1-(2-fluorophenyl)ethyl)amino)quinolin-6-yl)pyrimidin-2-yl)pyrrolidine-3-carboxylic acid], the IC50 was 1000 to 10000 nM.
`C[C@@H](Nc1c(Cl)cnc2cc(F)c(-c3cnc(N4CCC(C(C)(C)O)C4)nc3)cc12)c1ccccc1F` (mixture of isomers) [Example 283, 2-(1-(5-(3-chloro-7-fluoro-4-(((R)-1-(2-fluorophenyl)ethyl)amino)quinolin-6-yl)pyrimidin-2-yl)pyrrolidin-3-yl)propan-2-ol] was tested, and the IC50 was < 1000 nM.
For `Cc1nc2ccc(-c3cnc(C(C)(C)O)nc3)cc2c(N[C@H](C)c2cc(C(O)CO)ccc2F)c1Cl` (mixture of isomers) [Example 397, 1-(3-((R)-1-((3-chloro-6-(2-(2-hydroxypropan-2-yl)pyrimidin-5-yl)-2-methylquinolin-4-yl)amino)ethyl)-4-fluorophenyl)ethane-1,2-diol], the IC50 was < 1000 nM.
`C[C@@H](Nc1c(Cl)cnc2ccc(-c3cnc(C(C)(C)O)nc3)cc12)c1cc(C(O)CO)ccc1F` (mixture of isomers) [Example 398, 1-(3-((R)-1-((3-chloro-6-(2-(2-hydroxypropan-2-yl)pyrimidin-5-yl)quinolin-4-yl)amino)ethyl)-4-fluorophenyl)ethane-1,2-diol] was tested, and the IC50 was < 1000 nM.
For `C[C@@H](Nc1c(Cl)cnc2ccc(-c3cnc(C(C)(C)O)nc3)cc12)c1cc(CC(O)CO)ccc1F` (mixture of isomers) [Example 399, 3-(3-((R)-1-((3-chloro-6-(2-(2-hydroxypropan-2-yl)pyrimidin-5-yl)quinolin-4-yl)amino)ethyl)-4-fluorophenyl)propane-1,2-diol], the IC50 was < 1000 nM.
`Cc1nc2ccc(-c3cnc(C(C)(C)O)nc3)cc2c(N[C@@H](c2cc(C(O)CO)ccc2F)C(F)F)c1Cl` (mixture of isomers) [Example 402, 1-(3-((S)-1-((3-chloro-6-(2-(2-hydroxypropan-2-yl)pyrimidin-5-yl)-2-methylquinolin-4-yl)amino)-2,2-difluoroethyl)-4-fluorophenyl)ethane-1,2-diol] was tested, and the IC50 was < 1000 nM.
In the case of `Cc1nc2ccc(-c3cnc(C(C)(C)O)nc3)cc2c(N[C@H](C)c2cc(C(C)(O)CO)ccc2F)c1Cl` (mixture of isomers) [Example 403, 2-(3-((R)-1-((3-chloro-6-(2-(2-hydroxypropan-2-yl)pyrimidin-5-yl)-2-methylquinolin-4-yl)amino)ethyl)-4-fluorophenyl)propane-1,2-diol], the IC50 is reported as < 1000 nM.
With `Cc1nc2ccc(-c3cnc(C(C)(C)O)nc3)cc2c(N[C@H](C)c2cc(C(C)O)ccc2F)c1Cl` (mixture of isomers) [Example 433, 2-(5-(3-chloro-4-(((1R)-1-(2-fluoro-5-(1-hydroxyethyl)phenyl)ethyl)amino)-2-methylquinolin-6-yl)pyrimidin-2-yl)propan-2-ol] the IC50 was < 1000 nM.
For `CC(Nc1c(Cl)cnc2cc(F)c(-c3ccc(C(O)CO)cc3)cc12)c1cc(C#N)ccc1F` (mixture of isomers) [Example 599, 3-(1-((3-chloro-6-(4-(1,2-dihydroxyethyl)phenyl)-7-fluoroquinolin-4-yl)amino)ethyl)-4-fluorobenzonitrile], the IC50 was < 1000 nM.
With `CC(C)(O)c1ncc(-c2ccc3ncc(Cl)c(NC(CF)c4ccccc4F)c3c2)cn1` (racemic) [Example 10, 2-(5-(3-chloro-4-((2-fluoro-1-(2-fluorophenyl)ethyl)amino)quinolin-6-yl)pyrimidin-2-yl)propan-2-ol] the IC50 was < 1000 nM.
For `CN(C)CC(Nc1c(Cl)cnc2ccc(-c3cnc(C(C)(C)O)nc3)cc12)c1ccccc1F` (racemic) [Example 12, 2-(5-(3-chloro-4-((2-(dimethylamino)-1-(2-fluorophenyl)ethyl)amino)quinolin-6-yl)pyrimidin-2-yl) propan-2-ol], the IC50 was 1000 to 10000 nM.
With `CC(Nc1c(Cl)cnc2c(Cl)cc(-c3cnc(N4CCNC(=O)C4)nc3)cc12)c1ccccc1F` (racemic) [Example 18, 4-(5-(3,8-dichloro-4-((1-(2-fluorophenyl)ethyl)amino)quinolin-6-yl)pyrimidin-2-yl)piperazin-2-one] the IC50 was 1000 to 10000 nM.
`CNc1ncc(-c2cc(Cl)c3ncc(Cl)c(NC(C)c4ccccc4F)c3c2)cn1` (racemic) [Example 19, 3,8-dichloro-N-(1-(2-fluorophenyl)ethyl)-6-(2-(methylamino)pyrimidin-5-yl)quinolin-4-amine] showed an IC50 of 10000 to 25000 nM.
For `CC(Nc1c(Cl)cnc2c(Cl)cc(-c3cnn(C)c3)cc12)c1ccccc1F` (racemic) [Example 20, 3,8-dichloro-N-(1-(2-fluorophenyl)ethyl)-6-(1-methyl-1H-pyrazol-4-yl)quinolin-4-amine], the IC50 was 10000 to 25000 nM.
With `CC(Nc1c(Cl)cnc2c(Cl)cc(-c3ccc(C(C)(C)O)cc3)cc12)c1ccccc1F` (racemic) [Example 21, 2-(4-(3,8-dichloro-4-((1-(2-fluorophenyl)ethyl)amino)quinolin-6-yl)phenyl)propan-2-ol] the IC50 was 1000 to 10000 nM.
`CNS(=O)(=O)c1ccc(-c2cc(Cl)c3ncc(Cl)c(NC(C)c4ccccc4F)c3c2)cc1` (racemic) [Example 22, 4-(3,8-dichloro-4-((1-(2-fluorophenyl)ethyl)amino)quinolin-6-yl)-N-methylbenzenesulfonamide] gave an IC50 of 10000 to 25000 nM.
`CCC(Nc1c(Cl)cnc2ccc(-c3cnc(N4CCNC(=O)C4)nc3)cc12)c1nc(C(N)=O)ccc1F` (racemic) [Example 23, 6-(1-((3-chloro-6-(2-(3-oxopiperazin-1-yl)pyrimidin-5-yl)quinolin-4-yl)amino)propyl)-5-fluoropicolinamide] was tested, and the IC50 was < 1000 nM.
